Here are results for one molecule from patent US9861606B2, “Therapeutic for treating inflammatory lung disorders” (University College Cardiff Consultants Limited, priority 2012, dated 2018).

The subject of this experiment is Dunkin-Hartley guinea pigs. Kind of experiment: Inflammatory cell infiltration in BALF of LPS-treated guinea pig model of COPD. It is filed as in vivo. Particulars: nebulised 3 micromolar, 30 min before LPS. As to the method: FIG. 15. The calcilytic NPS89636 reduces inflammatory cell infiltration detected in the bronchioalveolar lavage fluid (BALF) from guinea pigs with LPS-induced COPD. Male Dunkin-Hartley guinea pigs (500-550 g) were exposed to 30 micrograms/ml of nebulized lipopolysaccharide (LPS) in saline for 1 hour on alternate days for nine exposures. Animals received nebulised 3 micromolar NPS89636 (or 0.3% DMSO vehicle) for 9 days starting after exposure 5 for 30 min, 30 min before LPS exposure every other day. Animals were killed 24 hours after the ninth exposure (1.5 mL of Euthatal IP) and BALF was collected and cells were counted the same day as described in FIG. 14. Data are presented as mean±S.E.M. Significant differences between vehicle and calcilytic are indicated, p<0.05, n=6. […] For the total cell counts 100 microliters of the concentrated BALF from OVA-sensitised mice or 100 microliters of the diluted BALF from guinea pigs were applied to the Cytospin 3 Shandon cell smearing system (using glass slides from Thermo Scientific (BS7011/2; 0.8-1 mm, 76×26 mm) and filter paper from Thermo Scientific (5991022; Shandon filter cards) at 1000 rt/min for 7 minutes. The slides then were immersed into 1.5% […] stain in methanol for 6 min, then briefly washed in water twice. The slides were allowed to dry overnight, and the cells were counted using 100× oil immersion objective.

The structures appear in SMILES notation.

As for `CCc1ccc(CC(C)(C)NCC(O)COc2cc(-c3ccc(C(=O)O)cc3)ccc2C#N)c(F)c1.Cl` (stereo in doubt) [NPS89636, (S)-4′-cyano-3′-[3-[2-(4-ethyl-2-fluorophenyl)-1,1-dimethylethylamino]-2-hydroxy-propoxy]-biphenyl-4-carboxylic acid hydrochloride], the “Effect on inflammatory cell infiltration (BALF), LPS-treated guinea pig” value is “a reduction in the inflammatory cell infiltration, especially of lymphocytes and neutrophils”.
